Activity calls are given as the source filed them.
Columns and labels:
[1] = biological target: Mu-type opioid receptor (Homo sapiens, UniProt P35372); format: functional, cell-based;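 note: U2OS cells with beta-arrestin recruitment to OPRM1 by beta-gal complementation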
[2] = biological target: 5-hydroxytryptamine receptor 2A (Mus musculus, UniProt P35363); format: functional, cell-based;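 note: CHO-K1 cells with tagged receptor and beta-arrestin; agonist potency measured as compound-induced activation of the receptor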
5-hydroxytryptamine receptor 2A, sequence (P35363 whole entry): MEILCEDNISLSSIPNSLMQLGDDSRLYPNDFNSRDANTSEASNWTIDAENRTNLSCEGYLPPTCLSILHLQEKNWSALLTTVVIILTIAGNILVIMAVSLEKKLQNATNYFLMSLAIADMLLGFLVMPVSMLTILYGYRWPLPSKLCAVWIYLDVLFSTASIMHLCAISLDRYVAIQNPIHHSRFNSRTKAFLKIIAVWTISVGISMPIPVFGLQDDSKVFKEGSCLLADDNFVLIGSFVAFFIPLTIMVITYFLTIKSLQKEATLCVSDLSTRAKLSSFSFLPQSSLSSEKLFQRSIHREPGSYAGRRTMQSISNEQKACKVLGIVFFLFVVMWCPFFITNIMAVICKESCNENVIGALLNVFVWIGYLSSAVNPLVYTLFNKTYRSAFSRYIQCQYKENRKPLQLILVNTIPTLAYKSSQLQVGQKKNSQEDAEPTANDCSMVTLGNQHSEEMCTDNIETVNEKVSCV

[3] = biological target: Prothrombin (Homo sapiens, UniProt P00734); test: Thrombin 1536 HTS Dose Response Confirmation. [Related pubchem assays: 1046 (Thrombin 1536 HTS; hits were confirmed in this assay)]; format: functional
[4] = test system: BJ; test: BJ-TERT fibroblast viability loss – cell-based, RAS-independent, luminescence, dose response (AID 1933); format: functional; details: Homo sapiens
[5] = test system: BJ; test: cells; format: functional, cell-based; details: Homo sapiens
[6] = test system: BJ; test: BJ-TERT-LT-ST fibroblast viability loss – cell-based, RAS-independent, luminescence, dose response (AID 1935); format: functional; details: Homo sapiens;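 note: BJ fibroblasts immortalized with TERT plus LT and ST oncogenes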
[7] = DRD fibroblast viability loss – cell-based, non-viral oncogenic, luminescence, dose response (AID 1934); format: functional; details: Homo sapiens
[8] = Luminescence Cell-Based Dose Retest to Confirm Inhibitors of Cancer Stem Cells. [Related pubchem assays (depositor defined):AID2717, AID2721]; format: functional; details: Homo sapiens
[9] = test system: BJ; test: growth inhibition of engineered Ras-driven BJ cells – cell-based, alamar blue fluorescence, cherrypicked samples, dose response (AID 2631); format: functional; details: Homo sapiens;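 note: confirmatory dose-response assay in RAS-dependent BJ fibroblasts engineered with TERT, LT and ST, with cytotoxicity read by fluorescence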
[10] = test system: Vero; test: cells; format: functional; details: Chlorocebus sabaeus
[11] = biological target: Disintegrin and metalloproteinase domain-containing protein 17 (Homo sapiens, UniProt P78536); test: exosite inhibitors of ADAM17, dose response, biochemical (AID 743260)
Disintegrin and metalloproteinase domain-containing protein 17, sequence (P78536 whole entry, the tested form may be a part): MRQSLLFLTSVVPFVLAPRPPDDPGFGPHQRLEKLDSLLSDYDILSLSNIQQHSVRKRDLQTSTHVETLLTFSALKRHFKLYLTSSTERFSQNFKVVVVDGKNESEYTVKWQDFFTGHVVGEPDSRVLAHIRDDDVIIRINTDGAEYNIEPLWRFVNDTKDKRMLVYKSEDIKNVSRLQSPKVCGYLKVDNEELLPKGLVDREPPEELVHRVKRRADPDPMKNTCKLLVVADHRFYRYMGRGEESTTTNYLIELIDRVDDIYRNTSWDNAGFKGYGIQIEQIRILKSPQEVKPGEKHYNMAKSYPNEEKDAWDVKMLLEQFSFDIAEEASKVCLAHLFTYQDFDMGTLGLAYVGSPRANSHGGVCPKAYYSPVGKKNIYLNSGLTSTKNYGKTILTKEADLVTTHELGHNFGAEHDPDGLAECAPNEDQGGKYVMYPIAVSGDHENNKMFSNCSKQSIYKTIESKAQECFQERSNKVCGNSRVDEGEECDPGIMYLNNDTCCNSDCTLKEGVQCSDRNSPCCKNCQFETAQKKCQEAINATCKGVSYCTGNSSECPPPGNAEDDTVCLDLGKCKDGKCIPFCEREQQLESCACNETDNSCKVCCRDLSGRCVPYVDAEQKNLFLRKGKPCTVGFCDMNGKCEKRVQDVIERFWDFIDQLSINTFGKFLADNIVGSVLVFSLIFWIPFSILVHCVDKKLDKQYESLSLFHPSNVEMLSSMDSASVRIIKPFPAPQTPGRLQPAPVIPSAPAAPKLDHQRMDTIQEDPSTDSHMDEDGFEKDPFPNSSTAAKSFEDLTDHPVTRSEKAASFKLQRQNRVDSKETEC

[12] = inhibition of ADAM10 peptide cleavage – biochemical, FRET peptide substrate, recombinant human ADAM10, selectivity assay for ADAM17 exosite inhibitor project, dose response (AID 743259);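 note: ADAM10 enzyme cleaving a FRET peptide substrate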
[13] = Trypanosoma cruzi growth suppression in host cells – NIH3T3 host cells, beta-gal luminescence, confirmation (AID 2044); format: functional, cell-based;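 note: intracellular parasites grown in NIH/3T3 mouse fibroblasts as host cells; luminescent beta-galactosidase reporter signal from transgenic T. cruzi replicating inside host cells; inhibitors lower the luminescence signal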
[14] = NIH3T3 cell viability loss – ATP luminescence, mouse fibroblasts, counter-screen, dose response (AID 2010); format: functional, cell-based;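 note: cells exposed to compound for about 90 hours before reading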
[15] = growth inhibition of yeast DHODH-expressing 3D7 parasites – SYBR Green, dry powder samples, dose response (AID 1159570); format: functional, cell-based;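 note: parasite growth measured after 72 hours of compound exposure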
[16] = P. falciparum Dd2 growth inhibitors, dose response, SYBR Green, cherry-picked samples (AID 1159567); format: functional, cell-based
[17] = Dd2 malaria parasite growth inhibition potency – SYBR Green, dry powder samples, dose response (AID 1159566); format: functional, cell-based;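 note: potency for growth inhibition with lower SYBR green DNA signal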
[18] = growth inhibition of PfATP4-mutant resistant parasites – NITD609-resistant line, SYBR Green, dry powder, dose response (AID 1159571); format: functional, cell-based;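 note: parasites synchronized at ring stage by sorbitol before testing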
[19] = blockers of HIV-1 envelope-mediated cell-cell fusion – cherry-pick, dose response (AID 652057); format: functional, cell-based
[20] = viability loss in CEM21 cells – cell-based, CellTiter-Glo luminescence, cherry-picked, cytotoxicity control for viral fusion inhibitor project, dose response (AID 652042); format: functional;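 note: potency for signal decrease meaning cytotoxicity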
[21] = blockers of HIV-1 ZM109 envelope-driven cell-cell fusion – HeLa effector, CEM target cells, luciferase, cherry-pick, dose response (AID 652058); format: functional, cell-based;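 note: luciferase signal from HIV-1 Env mediated cell-cell fusion of effector and target cells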
[22] = off-target signal loss in HeLa-CEM21 co-culture – HeLa F-luc CTL cells, cherry-picked, counter-screen for HIV-1 Env fusion inhibitor project, dose response (AID 652040); format: functional, cell-based;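 note: potency for signal decrease marking cytotoxic or nonspecific inhibition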
[23] = HIV-1 AD8 envelope cell-cell fusion blockers – cherry-pick, dose response (AID 652062); format: functional, cell-based;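 note: luciferase signal from cell-cell fusion driven by HIV-1 clade B AD8 Env; potency is for inhibitors of fusion seen as a drop in luminescence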

Mu-type opioid receptor, sequence (P35372 whole entry): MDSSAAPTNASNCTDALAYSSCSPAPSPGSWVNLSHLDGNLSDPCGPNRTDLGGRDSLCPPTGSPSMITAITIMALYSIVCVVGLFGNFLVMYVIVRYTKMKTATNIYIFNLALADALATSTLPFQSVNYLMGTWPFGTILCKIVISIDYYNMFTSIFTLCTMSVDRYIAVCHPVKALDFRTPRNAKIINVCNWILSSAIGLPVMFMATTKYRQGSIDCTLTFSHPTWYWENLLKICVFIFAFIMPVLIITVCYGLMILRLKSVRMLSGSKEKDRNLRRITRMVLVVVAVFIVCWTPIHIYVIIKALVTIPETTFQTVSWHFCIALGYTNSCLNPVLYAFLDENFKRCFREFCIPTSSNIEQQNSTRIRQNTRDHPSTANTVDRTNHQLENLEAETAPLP

O=C(NCCN1CCN(c2ccccc2F)CC1)C1CCCN(S(=O)(=O)c2c[nH]cn2)C1 (stereo not given)
EC50 [1]: 92.5 µM (inactive)
EC50 [2]: 0.895 µM (active)

CCCCc1nc2ccccc2c(NC(=O)CNC(C)(C)C)c1CCC
IC50 [3]: > 50 µM (not active)

CCCN1C/C(=C/c2ccc3c(c2)OCO3)C(=O)/C(=C/c2ccc3c(c2)OCO3)C1
EC50 [4]: 4.04 µM (inconclusive)
EC50 [5]: 14.9 µM (inconclusive)
EC50 [6]: 2.94 µM (inconclusive)
EC50 [7]: 4.99 µM (active)
AC50 [8]: 0.766 µM (active)
EC50 [9]: 0.582 µM (inconclusive)
CC50 [10]: 9.59 µM (active)
IC50 [11]: 19.6 µM (inactive)
IC50 [12]: > 69.5 µM (inactive)

Cc1cccc(C(=N)NOC(=O)N2CCOCC2)c1
EC50 [13]: 2.63 µM (active)
EC50 [14]: > 60 µM (not active)
IC50 [11]: > 69.5 µM (inactive)
IC50 [12]: > 69.5 µM (inactive)

O=C(c1ccc(F)cc1)N1CC(=O)N2[C@H](C1)[C@@H](c1ccc(-c3cccnc3)cc1)[C@@H]2CO
AC50 [15]: 0.786 µM (active)
AC50 [16]: 0.439 µM (active)
AC50 [17]: 0.42 µM (active)
AC50 [18]: 0.542 µM (active)

O=S(=O)(c1ccc(OCC(O)CN2CCN(c3ccccc3)CC2)cc1)N1CCOCC1 (stereo not given)
EC50 [1]: 92.4 µM (inactive)
EC50 [2]: 0.481 µM (active)

CSc1nc(-c2ccco2)nn1C(=O)c1ccccc1
IC50 [3]: 0.082 µM (active)

Cc1cc(Oc2ccccc2)nc(SCC(=O)Nc2ccc(Cl)c(Cl)c2)n1
IC50 [11]: > 69.5 µM (inactive)
IC50 [12]: 10.4 µM (inactive)

COC(=O)[C@@]12C[C@@H](CC(=O)NCc3cccc(C(F)(F)F)c3)C(=O)N(Cc3ccco3)C1=CCC(C)(C)C2
AC50 [19]: 4.26 µM (active)
AC50 [20]: 50 µM (active)
AC50 [21]: 8.24 µM (active)
AC50 [22]: 8.92 µM (active)
AC50 [23]: 20.9 µM (active)

From ChEMBL document CHEMBL1201862, “PubChem BioAssay data set” (2004)
